These results are taken from PubChem BioAssay (NCI).

What all share (test): inhibition of tumour cell growth, NCI panel, 48 h
Assay [1] has as its system HCC-2998 colon.
In assay [2] the test system is SK-MEL-28 melanoma.
The test system of assay [3] is A549 NSCLC.
In assay [4] the test system is MALME-3M melanoma.
Assay [5] concerns UO-31 renal.
The test system of assay [6] is SF-268 CNS.
Assay [7] deals with HCT-15 colon.
The test system of assay [8] is NCI-H23 lung.
Assay [9] relates to MOLT-4 leukemia.
Assay [10] deals with HL-60(TB) leukemia.
For assay [11], the system named is TK-10 renal.
Assay [12] relates to COLO 205 colon.
Assay [13] concerns NCI-H460 lung.
In assay [14] the test system is OVCAR-8 ovarian.
Assay [15] relates to CAKI-1 renal.
Assay [16] has as its system RPMI-8226 leukemia.
Assay [17] deals with DU-145 prostate.
The subject of assay [18] is PC-3 prostate.
For assay [19], the system named is T-47D breast.
Assay [20] relates to NCI/ADR-RES ovarian.

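All cell lines were grown in 96-well plates and treated with compound for 48 hours. TGI denotes the concentration required for complete inhibition of growth.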

As to `O=C1CSc2ccncc2N1`, the TGI in assay [1], in assay [2], in [3], in [4], in assay [5] and in assay [6] was greater than 100 µM throughout. Moreover, the TGI in [7], in assay [8], in assay [9], in [10], in assay [11] and in assay [12] was greater than 100 µM each time. For the same compound, the TGI in [13], in [14] and in assay [15] was greater than 100 µM throughout.

For `N.N.N.N.O=S(=O)([O-])[O-].[Co+3].[OH3+].[OH3+]`, the TGI in assay [2], in assay [3], in assay [4], in assay [5], in assay [6] and in assay [7] was greater than 100 µM each time. For the same compound, the TGI in assay [8], in assay [9], in assay [10], in assay [11], in [12] and in [13] was greater than 100 µM throughout. For the same compound, the TGI in [14] and in assay [16] was greater than 100 µM each time.

Consider `COC(=O)c1c/c(=N\NC(=O)CC(=O)Nc2ccc(C)cc2)c2ccccc2o1`, for which the TGI in assay [2], in assay [3], in assay [4], in assay [5], in assay [6] and in assay [7] was greater than 100 µM in each case. Further, the TGI in assay [8], in [9], in [10], in assay [11], in assay [12] and in assay [13] was greater than 100 µM throughout. Also, the TGI in assay [14], in [16] and in [15] was greater than 100 µM each time.

For the compound `COC1=CC(=O)C2[C@H]3Cc4ccccc4[C@H]3C2(C)C1=O` (stereo partly drawn), the TGI in [1], in assay [2], in assay [3], in assay [4], in [5] and in assay [6] was greater than 100 µM throughout. Further, the TGI in assay [7], in assay [8], in [9], in assay [11], in assay [12] and in assay [13] was greater than 100 µM throughout. The TGI in [14], in assay [16] and in assay [15] was greater than 100 µM each time.

Turning to `O=C1c2cccnc2-c2nccc3ccnc1c23`, the TGI in [1] was found to be 3.41 µM; in assay [2] it was 2.58 µM; in [3], 6.82 µM; in assay [4], 3.28 µM; in assay [5], 3.16 µM; in assay [6], 6.58 µM. For the same compound, the TGI in [17] came to 2.65 µM; in assay [7], 1.8 µM; in assay [8], 2.11 µM; in assay [9], 0.756 µM; in assay [18], 3.45 µM; in assay [10], 0.185 µM. Also, the TGI in [12] worked out at 1.12 µM; in assay [13] it was 12.8 µM; in assay [19] it was 1.77 µM; in assay [14], 2.17 µM; in assay [16] it was 0.894 µM; in [15], 1.32 µM.

Regarding `CCCN1CN(C(C(=O)N[C@@H]2C(=O)N3C(C(=O)O)=C(C)CSC23)c2ccccc2)CSC1=S` (stereo partly drawn), the TGI in [2], in assay [3], in [4], in assay [5], in [6] and in assay [7] was greater than 100 µM in each case. The TGI in [8], in assay [9], in assay [10], in assay [11], in assay [12] and in assay [13] was greater than 100 µM throughout. Besides, the TGI in assay [14] and in [16] was greater than 100 µM throughout.

In the case of `COc1ccc(-n2nnnc2C2(Nc3ccccc3)CCN(Cc3ccccc3)CC2)cc1`, the TGI in assay [1] came to 14 µM; in assay [2], 26.6 µM; in assay [3] it was 45.8 µM; in [4], 27.3 µM; in [5] it was 38.9 µM; in assay [20], 51 µM. Besides, the TGI is greater than 100 µM in assay [17]; 25.1 µM in assay [7]; 57.9 µM in [8]; 8.14 µM in [10]; 40.9 µM in assay [11]; 20 µM in assay [12]. Besides, the TGI in assay [13] amounted to 42 µM; in [19] it was 45.2 µM; in assay [14], 54.6 µM; in assay [16], 48.5 µM.

Turning to `O=C1C=Cc2c(I)sc(I)c21`, the TGI in [1] is 35.3 µM; in [2] it was 44.6 µM; in assay [3], greater than 100 µM; in assay [4], 33.4 µM; in assay [5] it was 32.5 µM; in [6] it was 32.7 µM. Further, the TGI in assay [20] is 67.7 µM; in assay [17] it was greater than 100 µM; in assay [7], 34 µM; in assay [8], 36.7 µM; in [9] it was 42.3 µM; in [11], 68.5 µM. The TGI is 36.8 µM in assay [12]; greater than 100 µM in [13]; 41.4 µM in [19]; 42.3 µM in assay [14]; 33.3 µM in [15].

For `COc1ccc(C2C3=C(CCCC3=O)N(c3ccccc3)C3=C2C(=O)CCC3)cc1`, the TGI in assay [2], in assay [3], in [5], in assay [6], in [20] and in [7] was greater than 100 µM in each case. Also, the TGI in assay [8], in assay [9], in assay [18], in [10], in assay [11] and in [13] was greater than 100 µM each time. Besides, the TGI in assay [16] and in [15] was greater than 100 µM throughout.
